What was measured:
[1] = system: G93A transgenic mice; test: oxidative stress in lumbar spinal motor neurons of G93A transgenic mice (nitrotyrosine, MitoTracker); assay type: in vivo, mouse; conditions: 30 mg/kg/d oral in diet from 8 weeks of age, at 10 weeks of age
From the text: D: Fluorescent photomicrographs of the lumbar ventral section immunolabeled with nitrotyrosine antibody from the wild type (a), or ALS transgenic mice treated with vehicle (b), or 2-hydroxy TTBA for 2 weeks starting from at age of 8 weeks (c). Arrows indicate motor neurons (top panel). Levels of nitrotyrosine were quantitated, mean±SEM (n=15 sections from 3 mice per each condition (bottom panel). p<0.05 using ANOVA and Student-Newman-Keuls test.
E: Same as D except measurement of the fluorescence intensity of oxidized MT red CM-H2XRos. p<0.05 using ANOVA and Student-Newman-Keuls test.
G93A transgenic mice received oral administration of 2-hydroxy-TTBA (30 mg/kg/d) in the diet from 8 weeks of age. The oral administration of 2-Hydroxy-TTBA blocked nitrotyrosine, and mitochondrial free radical increased in the lumbar spinal motor neurons at 10 weeks of age compared to the wild type (FIGS. 5D & 5E). […] Thus, cell necrosis and Fas-mediated apoptosis induced in G93A mice can be prevented by oral administration of 2-hydroxy-TTBA and Li^+.

[2] = system: Fas-FADD interaction; test: Fas-FADD interaction in serum-deprived neuron-rich cultures (immunoprecipitation, Western blot); assay type: cell-based, mouse; conditions: deprived of serum for 8 hr
Method: (B) Neuron-rich cortical cell cultures (DIV 7) were deprived of serum, alone or with addition of 100 μM zVADfmk, 1 μM 2-hydroxy TTBA, or 5 mM Li^+. Neuronal death was analyzed 24 hr later by counting viable neurons excluding trypan (mean±SEM, n=4). *, Significant difference from the relevant control (serum deprivation alone), p<0.05 using ANOVA and Student-Neuman-Keuls test. (C) Western blot analysis of FADD antibody following immunoprecipitation with Fas antibody in the same samples above.
Additional experiments were performed to examine if targeting both neuronal cell necrosis and apoptosis would result in synergic neuroprotection in […] transgenic mice. […] Neuronal cell apoptosis was induced by serum deprivation in neuron-rich cortical cell cultures as reported, which was prevented by addition of 5 mM Li^+ as well as zVADfmk, a broad spectrum inhibitor of caspases (FIG. 5B). […] Additional experiments were performed to examine if Li^+ would prevent Fas signaling pathway. […] This implies that 2-Hydroxy-TTBA and Li^+ blocks oxidative neuronal cell necrosis and apoptosis, respectively.

[3] = hydroxyl radical scavenging in test tube; assay type: biochemical
Method: (§1) In addition, scavenging effects of superoxide and hydroxyl radical in test tube were evaluated. Hydroxyl radical scavenging activities of 0.1 uM, 1 uM and 10 uM of chemical 01 were 13.35%, 33.33% and 71.72%, respectively.

[4] = system: G93A mouse; test: oxidative toxicity in G93A mouse (nitrotyrosine immunostaining); assay type: in vivo; conditions: G93A mice at ages of 10 weeks
Method: Reactive oxygen species (ROS) produced in progress of ALS disease was evaluated in G93A mouse.

[5] = system: APPswe/PS1deltaE9 double transgenic mice; test: elevated plus maze in APPswe/PS1deltaE9 double transgenic mice; assay type: in vivo, mouse; conditions: 25 mg/kg/day for 14.5 months (3~17.5 months)
Method: After administration of 14.5 months, Elevated plus maze test was performed to evaluate the behavior improvement like example 10-3-2 (mean±SEM, n=3-5).
(§2) 17.5 month-old APPswe/PS1deltaE9 double transgenic mice were fed chow alone (saline only), or containing 25 mg/kg/day of chemical—01, for […] (3˜17.5 month).
(§3) The anxiety function was analyzed by elevated plus maze test. The time spent in the open arm was recorded in the elevated plus maze.

[6] = system: TNF-a; test: LPS-induced TNF-a in mesencephalic cultures; assay type: cell-based; conditions: 5 ng/ml LPS; 0-100 uM; 3 hours
Method: (§4) Mesencephalic nerve cell cultures were pre-treated with 5 ng/ml of LPS for 30 minutes to make a cull culture model of Parkinson's disease, and then 0-100 uM of chemical 01 were added. The level of NO was evaluated 24 hours after administration of chemical 01, and the level of TNF-a was evaluated 3 hours after administration of chemical 01 (mean±SEM, n=7-12 culture well/each group).

[7] = superoxide scavenging in test tube; assay type: biochemical; conditions: read-out: superoxide scavenging effect (IC50 value)
Method: as §1

[8] = single-dose toxicity test; conditions: mouse, in vivo; single dose
Method: Single-dose toxicity test of compounds showing good results in the above three efficacy tests were evaluated.

[9] = system: NO; test: LPS-induced NO in mesencephalic cultures; assay type: cell-based; conditions: 5 ng/ml LPS; 0-100 uM; 24 hours
Method: as §4

[10] = system: G93A mouse; test: microglia number and activation in G93A mouse (TOMATO Lectin); assay type: in vivo; conditions: 5 mg/kg/day or 20 mg/kg/day; lumbar ventral horn
Method: Number and activation degree of microglia (a marker of inflammation in brain disease animal model) expressed in the lumbar ventral horn of G93A mouse were evaluated with TOMATO Lectin dye. In G93A mouse, number of microglia was increased and microglia was more activated compared to the wild type mouse. Treatment with 5 mg/kg/day or 20 mg/kg/day of chemical 01 decreased the increase of number and activation degree of microglia (FIG. 13F).

[11] = system: Tg2576 transgenic mice; test: elevated plus maze in Tg2576 transgenic mice; assay type: in vivo, mouse; conditions: 25 mg/kg/day for 5 months (9~14 months)
Method: 14 month-old Tg2576 transgenic mice were fed chow alone, or containing 25 mg/kg/day of chemical 01, for 5 months (9˜14 months). After administration of 5 months, Elevated plus maze test was performed to evaluate the behavior improvement. Elevated plus maze has two open arms (30 cm×6 cm×0.5 cm) and two closed arms (30 cm×6 cm×15 cm), and also has 6 cm×6 cm of center platform. In Elevated plus maze test, mouse was carefully laid in the center with the head of the mouse toward open arm. The time that the mouse spent in the open arm was recorded for 5 minutes (mean±SEM, n=2).
14 month-old Tg2576 transgenic mice were fed chow alone (saline only), or containing 25 mg/kg/day of chemical—01, for 5 months (9˜14 month).
as §3

[12] = system: APPswe/PS1deltaE9 double transgenic mice; test: Morris water maze in APPswe/PS1deltaE9 double transgenic mice; assay type: in vivo, mouse; conditions: 25 mg/kg/day chemical 01 or 62.5 mg/kg/day ibuprofen for 14.5 months (3~17.5 months)
Method: After administration of 14.5 months, the cognitive function was analyzed by Morris water maze test like example 10-3-1 (mean±SEM, n=3-5).
as §2
The cognitive function was analyzed by Morris water maze test. Mice ware trained to perform a hidden platform task in the Morris water maze. The latency to find the platform was recorded for each mouse.

O=C(O)c1cc(NCc2c(F)c(F)c(C(F)(F)F)c(F)c2F)ccc1O [2-Hydroxy-TTBA, 2-hydroxy-5-(2,3,5,6-tetrafluoro-4-trifluoromethyl-benzylamino)-benzoic acid]
nitrotyrosine and mitochondrial free radical increased in the lumbar spinal motor neurons [1]: blocked | Fas-FADD interaction, effect in words [2]: not

O=C(O)c1cc(NCCc2ccc(C(F)(F)F)cc2)ccc1O [chemical 01, 2-Hydroxy-5-[2-(4-trifluoromethyl-phenyl)-ethylamino]-benzoic acid]
IC50 [3]: 0.97 µM | hydroxyl radical scavenging activity ([3]; 0.1 uM): 13.35% | hydroxyl radical scavenging activity ([3]; 1 uM): 33.33% | hydroxyl radical scavenging activity ([3]; 10 uM): 71.72% | fluorescence intensity of nitrotyrosine (oxidative toxicity) in motor neurons [4]: decreased | time spent in the open arm [5]: decreased the time | time spent in the open arm ([5]; listed as chemical—01): spent less time | increase of TNF-a caused by LPS [6]: dose-dependent manner | IC50 ([7]; NADH/PMS system): 26.1 µM | IC50 ([7]; X/XO system): > 100 µM | LD50 [8]: > 3000 mg/kg | increase of NO caused by LPS [9]: dose-dependent manner | increase of number and activation degree of microglia [10]: decreased | time spent in the open arm [11]: decreased the time | time spent in the open arm ([11]; listed as chemical—01): spent less time | escape latency / cognitive function (Morris water maze) [12]: shorter

Source: patent US20120301551A1, “COMPOUNDS AND COMPOSITIONS FOR TREATING NEURONAL DEATH OR NEUROLOGICAL DYSFUNCTION” (Neurotech Pharmaceuticals Co., Ltd., priority 2005, published 2012)
